PubChem BioAssay (NCI)
“And” between values parts separate entries of the source, which are not always exact repeats. Equal values may be shown once.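 Test compounds were applied to cells in 96-well plates for 48 hours at 5 doses. Here, GI50 denotes the concentration required for 50% inhibition of growth. Definition used: TGI = concentration required for complete inhibition of growth.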

Assays:
Assay in all cases: NCI tumour cell line growth inhibition, 48 h
SN12C renal = tested on: SN12C renal
HOP-62 NSCLC = tested on: HOP-62 NSCLC
ACHN renal = tested on: ACHN renal
SF-268 CNS = tested on: SF-268 CNS
RPMI-8226 leukemia = tested on: RPMI-8226 leukemia
CAKI-1 renal = tested on: CAKI-1 renal
SK-MEL-2 melanoma = tested on: SK-MEL-2 melanoma
SK-OV-3 ovarian = tested on: SK-OV-3 ovarian

| Compound | GI50 (SN12C renal) | TGI (SN12C renal) [µM] | GI50 (HOP-62 NSCLC) | TGI (HOP-62 NSCLC) | GI50 (ACHN renal) | TGI (ACHN renal) [µM] | GI50 (SF-268 CNS) | TGI (SF-268 CNS) | GI50 (RPMI-8226 leukemia) | TGI (RPMI-8226 leukemia) | GI50 (CAKI-1 renal) | TGI (CAKI-1 renal) | GI50 (SK-MEL-2 melanoma) | TGI (SK-MEL-2 melanoma) | GI50 (SK-OV-3 ovarian) | TGI (SK-OV-3 ovarian) |
| --- | --- | --- | --- | --- | --- | --- | --- | --- | --- | --- | --- | --- | --- | --- | --- | --- |
| O=C1OCC(c2ccc(O)cc2)=C1c1cc(O)c(O)c(O)c1 | 54000 nM | > 100 | 58600 nM | > 100 µM | > 100000 nM | > 100 | > 100000 nM | > 100 µM | 44100 nM | > 100 µM | 43200 nM | 89.6 µM |  |  |  |  |
| COc1cccc(-n2ncc3c(N/N=C/c4ccc(C)cc4)ncnc32)c1 | > 25000 nM | > 25 | > 25000 nM | > 25 µM | > 25000 nM | > 25 | > 25000 nM | > 25 µM | > 25000 nM | > 25 µM | > 25000 nM | > 25 µM | > 25000 nM | > 25 µM | > 25000 nM | > 25 µM |
| O=P(O)(O)OCC1OC(n2cnc3c(NCc4ccco4)ncnc32)C(O)C1O (stereo not given) | 989 nM | > 37.2 | 2240 nM | 19.4 µM | 2200 nM | > 100 | 3620 nM | > 79.6 µM | 298 nM | 2.66 µM | 596 nM | 3.01 µM | 11100 nM | > 50.7 µM | 2340 nM | 8.73 µM |
| CCC#CC[C@H](O)C/C=C1/C(=O)C=C[C@@H]1C/C=C\CCCC(=O)OC | 1770 nM | 8.12 | 1560 nM | 4.49 µM | 947 nM | 2.07 | 2050 nM | 9.22 µM | 657 nM | 2.86 µM | 1480 nM | 4.65 µM | 995 nM | 2.76 µM | 3210 nM | 10.2 µM |
| COc1cc(OC)c(/C=C/C(=O)c2ccc(Nc3ncnc4ccccc34)cc2)c(OC)c1 | 1660 nM | 10 | 966 nM | 2.32 µM | 1830 nM | 17.7 | 1370 nM | 4.4 µM | 687 nM |  | 1310 nM | 15.2 µM | 1010 nM | 7.36 µM | 1020 nM | 2.74 µM |
| C=C1C(=O)O[C@H]2[C@H]1CC/C(Cn1cc(Cc3c[nH]c4ccccc34)nn1)=C\CC[C@@]1(C)O[C@@H]21 | 1980 nM | 4.42 | 3860 nM | 14.9 µM | 1470 nM | 2.8 | 1700 nM | 3.27 µM | 2110 nM | 5.35 µM | 1300 nM | 2.64 µM | 1980 nM | 3.95 µM | 14200 nM | 27.4 µM |
| O=C(O)CNc1ccc(Cl)c(Cl)c1 |  | 94.3 |  | 86.1 µM |  | 53 |  | > 100 µM |  | 55.2 µM |  | 50.3 µM |  |  |  | > 100 µM |
| O=C1NCN(c2ccccc2)C12CCN(CCCC(c1ccc(F)cc1)c1ccc(F)cc1)CC2 | 2450 nM | 8.36 | 1840 nM | 3.52 µM | 2790 nM | 7.23 | 2040 nM | 4.78 µM | 1820 nM | 4.1 µM | 2510 nM | 7.44 µM | 1560 nM | 2.98 µM | 4200 nM | 14.7 µM |
| CCCCCCCN(CCCCCCC)C(=N)c1ccnc2ccccc12 | 1670 nM | 3.49 | 1160 nM | 2.65 µM | 1620 nM | 3.07 | 1480 nM | 3.03 µM | 1650 nM | 4.21 µM | 1320 nM | 2.68 µM | 1710 nM | 3.35 µM | 1640 nM | 3.14 µM |
| CC(=Nc1ccccc1)C1=C(O)C(Cc2cccc(F)c2)NC1=O (stereo not given) | 129 nM | > 100 | 55.7 nM | > 100 µM | 69.4 nM | > 100 | 71 nM | > 100 µM | 52.5 nM | > 100 µM | 49 nM | > 100 µM | 62.6 nM | > 100 µM | 46.9 nM | 1.33 µM |
| CC/C=C\C[C@H](O)C/C=C1/C(=O)C=C[C@@H]1C/C=C\CCCC(=O)OC(C)C | 2420 nM | 6.35 | 2450 nM | 6.01 µM | 1880 nM | 3.79 | 2000 nM | 6.31 µM | 371 nM | 0.939 µM | 2510 nM | 10.3 µM | 2020 nM | 4.77 µM | 5010 nM | 16.1 µM |
| O=C1NC(=O)C(=Cc2c3ccccc3cc3ccccc23)C(=O)N1 |  | > 100 |  | > 100 µM |  | > 100 |  | > 100 µM |  | > 100 µM |  | > 100 µM |  |  |  | > 100 µM |
| c1ccc2cc(Cn3cc[n+](Cc4ccc5ccccc5c4)c3)ccc2c1 | 846 nM | 7.03 | 3260 nM | 17 µM | 13700 nM | 27.6 | 1280 nM | 11.1 µM | 348 nM | 1.97 µM |  |  | 1370 nM | 4.35 µM | 2150 nM | 11.1 µM |
| COc1ccc(-c2nsc3c2NC(=O)CC3c2ccc3c(c2)OCCO3)cc1 (stereo not given) | 776 nM | > 100 | 585 nM | > 100 µM | 892 nM | > 100 | 1920 nM | > 100 µM | 492 nM | 42.4 µM | 429 nM | > 100 µM | 7240 nM | > 100 µM | 476 nM | 8.46 µM |
| CN(C)c1ccc(C(=N)c2ccc(N(C)C)cc2)cc1 | 6320 nM and 6040 nM | > 100 | 5110 nM and 2960 nM | 39.6 µM and 20.5 µM | 6500 nM and 7390 nM | > 100 | 4640 nM and 11600 nM | 43.4 µM and > 100 µM | 1800 nM and 2280 nM | 7.43 µM and 10.9 µM | 1620 nM and 3570 nM | 14.6 µM and 68.5 µM | 2240 nM and 3920 nM | 8.35 µM and 16.7 µM | 3550 nM and 2920 nM | 16.6 µM and 22.3 µM |
